The results in this text go back to patent publication US11613538B2, “Method of inhibiting or reducing a viral infection” (PTC Therapeutics, Inc., priority 2009, dated 2023).

The subject of this assay is hypoxia-induced VEGF production in HeLa cells. The assay is described as follows: cells. The format is cell-based, human. The conditions noted are these: Homo sapiens, HeLa.
On to `COc1ccc(OC(=O)N2CCc3c([nH]c4ccc(SC)cc34)C2c2ccc(OC)cc2)cc1` (stereo not drawn) [Compound 1484], for which the EC50 lay within 40 to 200 nM.

The compound `COc1ccc(C2c3[nH]c4cccc(Br)c4c3CCN2C(=O)Oc2ccc(F)cc2)cc1` (stereo not drawn) [Compound 1524] had an EC50 of 40 to 200 nM.

Turning to `CC#CCOC(=O)N1CCc2c([nH]c3ccc(Cl)cc23)[C@@H]1c1ccc(OCCCCl)cc1` [Compound 1294], the EC50 was under 8 nM. With `COCCN1CCN(C(=O)COc2ccc(C3c4[nH]c5ccc(Cl)cc5c4CCN3C(=O)Oc3ccc(F)cc3)cc2)CC1` (stereo not drawn) [Compound 1021] the figure was 40 to 200 nM; with `COc1ncc(C2c3[nH]c4ccc(Cl)cc4c3CCN2C(=O)Oc2ccc(F)cc2)cn1` (stereo not drawn) [Compound 1690], 8 to 40 nM.

As to `Clc1ccc2[nH]c3c(c2c1)CCN(c1ncccn1)C3c1ccc(OC2CCOCC2)cc1` (stereo not drawn) [Compound 1582], the EC50 was under 8 nM. With `COc1ccc(C2c3[nH]c4ccc(Cl)cc4c3CCN2C(=O)C(=O)OC(C)C)cc1` (stereo not drawn) [Compound 1338] the figure was 8 to 40 nM; with `O=C(Oc1ccc(C2NCCc3c2[nH]c2ccc(Cl)cc32)cc1)c1ccccc1` (stereo not drawn) [Compound 1540], 8 to 40 nM; with `CCOC(=O)N1CCc2c([nH]c3ccc(Cl)cc23)C1c1cccc(OCCCN2CCSCC2)c1` (stereo not drawn) [Compound 1116], 8 to 40 nM. As for `CCOC(=O)N1CCc2c([nH]c3ccc(Cl)cc23)C1c1ccc(OCC[C@H]2COC(C)(C)O2)cc1` (stereo partly drawn) [Compound 1163], the EC50 was under 8 nM.

For the compound `CCNC(=O)C(=O)N1CCc2c([nH]c3ccc(Cl)cc23)C1c1ccc(OC)cc1` (stereo not drawn) [Compound 1706], the EC50 lay in the range of 40 to 200 nM. Under `N#CCOc1ccc(C2NCCc3c2[nH]c2ccc(Cl)cc32)cc1` (stereo not drawn) [Compound 1550] stands 200 to 1000 nM. For the compound `CCCNC(=O)C(=O)N1CCc2c([nH]c3ccc(Cl)cc23)C1c1ccc(OC)cc1` (stereo not drawn) [Compound 1708], the EC50 is 200 to 1000 nM.

As to `COc1ccc(OC(=O)N2CCc3c([nH]c4cc(F)ccc34)C2c2ccc(OC)cc2)cc1` (stereo not drawn) [Compound 1460], the EC50 is over 1000 nM. Under `CCOC(=O)N1CCc2c([nH]c3ccc(Cl)cc23)[C@@H]1c1ccc(Oc2ncc(CS(C)(=O)=O)s2)cc1` [Compound 1700] stands under 8 nM. As to `CC(C)COC(=O)N1CCc2c([nH]c3ccc(Br)cc23)C1c1ccc(OCC(O)CO)cc1` (stereo not drawn) [Compound 1342], the EC50 was under 8 nM. Take `O=C(C1CC1)N1CCc2c([nH]c3ccc(Cl)cc23)C1c1ccc(OCCCN2CCOCC2)cc1` (stereo not drawn) [Compound 1141]: the EC50 is 40 to 200 nM. With `O=C(Oc1ccc(Cl)cc1)N1CCc2c([nH]c3ccc(Cl)cc23)C1c1ccc(OCCCO)cc1` (stereo not drawn) [Compound 1111] the figure was under 8 nM. With `O[C@@H](COc1ccc([C@H]2c3[nH]c4ccc(Cl)cc4c3CCN2c2ncccn2)cc1)CN1CCOCC1` [Compound 1254] the figure was under 8 nM; with `COc1ccc(C2c3[nH]c4ccc(Cl)cc4c3CCN2C(=O)OCCn2ccnn2)cc1` (stereo not drawn) [Compound 1157], 200 to 1000 nM. With `CC1(C)OC[C@@H](COc2ccc([C@H]3c4[nH]c5ccc(Cl)cc5c4CCN3C(=O)Oc3ccc(Cl)cc3)cc2)O1` [Compound 1260] the figure was under 8 nM; with `CCOC(=O)N1CCc2c([nH]c3ccc(Cl)cc23)[C@@H]1c1ccc(OCCC(O)CNC(C)=O)cc1` (stereo partly drawn) [Compound 1270], 8 to 40 nM; with `COc1ccc([C@H]2c3[nH]c4ccc(Cl)cc4c3CCN2C(=O)OCC2CC2)cc1` [Compound 1371], 8 to 40 nM. In turn, `CC(C)OC(=O)N1CCc2c([nH]c3ccc(Br)cc23)C1c1ccc(OCC(O)CO)cc1` (stereo not drawn) [Compound 1341] came in with an EC50 of 8 to 40 nM. In turn, `O=C(Oc1ccc(Cl)cc1)N1CCc2c([nH]c3ccc(Cl)cc23)C1c1ccc(OCCCOCCN2CCOCC2)cc1` (stereo not drawn) [Compound 1555] yielded an EC50 of under 8 nM.

Compound `O=C(/C=C/c1ccccc1)N1CCc2c([nH]c3ccc(Cl)cc23)C1c1ccc(OCCCn2cncn2)cc1` (stereo not drawn) [Compound 1508] had an EC50 of 8 to 40 nM. With `CC1(C)OC[C@H](CCOc2ccc([C@H]3c4[nH]c5ccc(Cl)cc5c4CCN3C(=O)OC3CCCC3)cc2)O1` [Compound 1316] the figure was under 8 nM.

A word on the EC50: it is the midpoint of the concentration-response curve. Read a high EC50 as weaker potency.
